# Measured values reported in patent US7371413B2, “Antioxidant and anti-inflammatory activity of compounds and preparations from African nutmeg seeds” (Rutgers, The State University, priority 2003, dated 2008).
# Assays:
# [1] = DPPH free radical scavenging assay; format: biochemical; settings: DPPH 1.0×10^−4 M in ethanol, half an hour, 517 nm
# Experimental: Kombo butter, kombo butter acid extract, and purified sargaquinoic acid (KB-1), sargachromenol (KB-2), and sargahydroquinoic acid (KB-3) were tested for antioxidant activity by both the 2,2′-diphenylpicrylydrazyl (DPPH) and the 2,2′-azinobis-(3-ethylbenzothiazoline-6-sulfonic acid) (ABTS) free radical scavenging assays. A solution of DPPH in ethanol was prepared at a final concentration of 1.0×10^−4 M. Each of the potential actives under investigation was added to the DPPH solution at a number of different concentrations. The solutions were mixed, shaken vigorously and kept in the dark for half an hour. The absorbance of the samples was then measured at 517 nm with an HP Model 8453 spectrophotometer using a blank of ethanol without DPPH. All tests were run in triplicate and averaged. Differences among individual measurements were always less than 5% [26].
# [2] = ABTS free radical scavenging assay (TEAC); format: biochemical; settings: Trolox equivalent of a 1.0 mM solution
# Experimental: For the ABTS assay, a solution of ABTS in water was prepared at a final concentration of 7 mM. The ABTS radical cation (ABTS^.+) was produced by adding solid potassium persulfate to the ABTS solution sufficient to yield a final concentration of 2.45 mM potassium persulfate in the mixture and allowing the mixture to stand in the dark at room temperature for 12-16 hours before use. The ABTS^.+ solution was diluted with methanol to an absorbance of 0.70 at 734 nm. Stock solutions of each of the potential actives under investigation were diluted with ethanol to ensure 20-80% inhibition of the radical cation upon introduction of a 10 μL aliquot of the active solution to 1 ml of diluted ABTS^.+ solution. The absorbance was measured beginning exactly 1 min after initial mixing and thereafter up to 6 min. Trolox was used as the standard, and the activity of each of the potential actives was expressed as a Trolox Equivalent Antioxidant Capacity (TEAC) value. The TEAC value represents the millimolar concentration of a Trolox solution having an equivalent antioxidant capacity to a 1.0 mM solution of the potential active under investigation.
# [3] = test system: COX-2 protein expression in LPS-induced RAW 264.7 cells; experiment: Inhibition of LPS-induced COX-2 protein expression (Western blotting); format: cell-based, mouse; settings: treatment for 18 hrs, LPS 0.5 μg/mL
# From the text: (§1) To confirm whether the inhibition of NO production by kombo butter, kombo butter acid extract, and purified sargaquinoic acid (KB-1), sargachromenol (KB-2), and sargahydroquinoic acid (KB-3) was due to reduced enzymatic activity or protein expression of inducible nitric oxide synthase (iNOS), we investigated the effect of kombo butter and its constituents on iNOS protein expression by Western blotting. In addition to iNOS, we also studied the effect of kombo butter and its constituents on the expression of cyclooxygenase-2 (COX-2), an enzyme critical to the production of inflammatory prostaglandins and known to be activated in LPS-stimulated macrophages.
# (§2) RAW 264.7 mouse macrophage cells were cultured in Dulbecco's Modified Eagle Medium (DMEM) supplemented with 15% fetal bovine serum (FBS) and an antibiotic and antimycotic mixture. Cell suspensions of 50,000 cells/well were cultured in quadruplicate in flat bottom microtiter plates for 12 hrs. […]
# (§3) An equal amount of protein (40 μg) from each sample was resolved by SDS-polyacrylamide gel electrophoresis. […] Specific bands were detected using enhanced chemiluminescence's detection system (Amersham-Pharmacia Biotech, NJ, USA) and the membrane was exposed to X-ray film. […]
# [4] = test system: iNOS mRNA expression in LPS-induced RAW 264.7 mouse macrophage cells; experiment: Inhibition of LPS-induced iNOS mRNA expression (RT-PCR); format: cell-based; settings: 12 hrs
# Experimental: (§4) Total RNA was isolated using Tri-reagent (Sigma, MO, USA) and 5 μg of this RNA was reverse transcribed to make cDNA using random hexamers and Superscript™ reverse transcriptase (Invitrogen, CA, USA) according to the manufacturer's instructions. The linear range of amplification of iNOS and COX-2 cDNA was determined using gene specific primers from Ambion, Inc. (TX, USA) according to the manufacturer's instructions. Briefly, the optimum amount of 18S primer and competitor for iNOS and COX-2 genes were determined. […] Finally, PCR products from each sample (10 μl) were resolved by electrophoresis in a 2% agarose gel (Fisher Biotech, NJ, USA) and stained with ethidium bromide. An image of the gel was captured after the appropriate exposure time and densitometric analysis was performed using image analysis software (Scion, NIH). For relative quantification, 18S ribosomal RNA was also amplified in same reaction as an internal control. Quantitative analysis of the expression of iNOS and COX-2 mRNA was performed by taking the ratio of the integrated density of each band to that of the 18S RNA band in the same sample.
# [5] = test system: COX-2 mRNA expression in LPS-induced RAW 264.7 mouse macrophage cells; experiment: Inhibition of LPS-induced COX-2 mRNA expression (RT-PCR); format: cell-based; settings: for inhibition of COX-2 mRNA expression: 12 hrs; for inhibition of COX-2 mRNA expression (in words): within the concentration ranges assayed
# Experimental: as §4
# [6] = test system: TPA-induced mouse ear edema; settings: compounds isolated from Roldana barba-johannis; compared with α-tocopherol; cited from earlier work
# [7] = compared with α-tocopherol and indomethacin; cited from earlier work
# [8] = test system: iNOS protein expression in LPS-induced RAW 264.7 cells; experiment: Inhibition of LPS-induced iNOS protein expression (Western blotting); format: cell-based, mouse; settings: treatment for 18 hrs, LPS 0.5 μg/mL
# From the text: as §1, §2, §3
# [9] = in vitro, compared with α-tocopherol; cited from earlier work
molecule,measurement,setting,value
"CC(C)=CCC/C(=C/CC/C(C)=C/CCC1(C)C=Cc2cc(O)cc(C)c2O1)C(=O)O (centres unmarked) [Sargachromenol, sargachromenol]",DPPH free radical scavenging IC50,[1],17.3 µg/mL
same,TEAC,[2],0.75 mM
same,inhibition of COX-2 protein expression,[3],markedly inhibited
same,inhibition of iNOS mRNA expression (in words),[4]; 50 μM,exhibited inhibitory activity
same,inhibition of COX-2 mRNA expression,[5]; 50 μM,16%
same,anti-inflammatory activity,[6],exceeded that of α-tocopherol
same,antioxidant activity (DPPH radical scavenging),[7],better than those of either α-tocopherol or indomethacin
"CC(C)=CCC/C(=C/CC/C(C)=C/CC/C(C)=C/Cc1cc(O)cc(C)c1O)C(=O)O [Sargahydroquinoic acid, sargahydroquinoic acid]",inhibition of iNOS mRNA expression,[4]; 25 μM,31%
same,inhibition of iNOS mRNA expression,[4]; 50 μM,74%
same,inhibition of COX-2 mRNA expression,[5]; 25 μM,~12%
same,inhibition of COX-2 mRNA expression,[5]; 50 μM,~19%
"CC(C)=CCC/C(=C\CC/C(C)=C/CC/C(C)=C/CC1=CC(=O)C=C(C)C1=O)C(=O)O [Sargaquinoic acid, sargaquinoic acid]",TEAC,[2],0.15 mM
same,inhibition of iNOS protein expression,[8],markedly inhibited
same,inhibition of iNOS mRNA expression (in words),[4]; 50 μM,exhibited inhibitory activity
"COc1ccc2c(c1)c(CC(=O)O)c(C)n2C(=O)c1ccc(Cl)cc1 [indomethacin, reference compound]",inhibition of COX-2 mRNA expression (in words),[5],neither of these compounds effected any inhibition
CC(=CCCC(C)=CCc1cc(O)cc(C)c1O)CCC=C(C)CCC=C(C)C(=O)O [kombic acid],antioxidant activity with respect to lipid peroxidation,[9],either met or exceeded that of α-tocopherol
vitamin E [reference compound],inhibition of COX-2 mRNA expression (in words),[5],neither of these compounds effected any inhibition
